These results are taken from patent US5726325A, “Tricyclic compounds” (Kyowa Hakko Kogyo Co., Ltd., priority 1995, dated 1998).

For data set [1], the system named is detrusor muscle. The data set is described as follows: Test Example 1: relaxation of guinea pig bladder strips contracted with 50 mM KCl. The format is cell-based, guinea pig (male albino Hartley). The conditions noted are these: Cavia porcellus; contraction induced by 50 mM KCl; concentration decreasing detrusor contraction by 50%. The text has this:
(§1) The activity of Compound (I) as a smooth muscle relaxant which is useful as a therapeutic agent for urinary incontinence can be observed, for example, using the following tests. In the following Test Examples 1 and 2, "IC50 " means the concentration of a test compound which induces the decrease in the contraction of detrusor muscle by 50%.
(§2) Male albino Hartley guinea pigs (350-550 g) were used as test animals. Each animal was exsanguinated to death under pentobarbital sodium anesthesia. The lower abdominal cavity was opened and its bladder was positioned. The connective tissue and the fat tissue around the bladder were removed, and the bladder was cleaned. After two pelvic nerves on the surface of the abdominal side of the bladder were dissected, the bladder was taken out on the entrance of ureter. The bladder was washed with a Krebs-Henseleit buffer [composition (mM): NaCl 118, KCl 4.7, MgSO4 1.2, KH2 PO4 1.2, CaCl2 2.5, NaHCO3 25, and D-glucose 11.1], and then put on a gauze patch soaked in the buffer in a Petri dish. The dome and the trigone of the bladder were dissected and discarded. The back of the bladder was cut vertically in the middle with scissors, and the bladder was put flat on the gauze patch. The dome tip and the side of the trigone of the bladder were dissected and discarded, and the mucosa of the bladder was removed. The back of the bladder was cut vertically to get 6 strips which are ca. 2.0 mm wide and ca. 10 mm long.
(§3) One end of each strip was fixed on a plastic supporter rod, and the other end was fixed on a clip connected to a suture thread. The supporter was fixed in 20 ml of an organ bath and the suture thread connected to the clip was fixed on a force-displacement transducer (NIHON KODEN TB-611T). The tissue was suspended in a Krebs-Henseleit buffer, and the bath solution was warmed to 37° C. and bubbled with a gas mixture of 5% CO2 and 95% O2. The pH of the solution was adjusted to about 7.4. The transducer was connected to a polygraph (NIHON KODEN AP-621G), and the change of tension was recorded on a recorder (YOKOGAWA type 3066). The polygraph was graduated by 0.5 g/cm.
After the tissue was incubated in the buffer for 15 minutes without preloading, tension was added thereto for about one hour. The preloading tension added was 1.5 g and it was relaxed to about 1 g. The tissue was washed at intervals of 15 minutes and the tension was adjusted to 1.5 g just before washing. The tension of the tissue was adjusted to be a steady state at 1 g. After this equilibrium time, 50 mM KCl (the whole content in the bath) was added, and the tissue was washed 10 minutes later. KCl was added to the tissue at intervals of 30 minutes, followed by washing 10 minutes later, and KCl was applied repeatedly until the developed tension induced by KCl becomes constant. When the tissue was confirmed to contract constantly by the application of KCl and relax to the steady state after washing, 50 mM KCl was applied again. After the tissue reached the steady state and the base line was obtained, a test compound was applied by the cumulative method (half-logarithmic incremence). The contact time at each concentration was 30 minutes. The activity of the compound was expressed as the maximum relaxation rate (%) of the tension induced by the agonist.

The test system of data set [2] is detrusor muscle. As to the kind of experiment: Test Example 2: relaxation of guinea pig bladder strips, rhythmical contraction induced by 15 mM KCl. It is filed as cell-based, guinea pig (male albino Hartley). The conditions noted are these: Cavia porcellus, concentration decreasing detrusor contraction by 50%.
Description: as §1, §2, §3
The effect of a smooth muscle relaxant varies with the concentration of KCl based on the difference of an action mechanism. In the following Test Example, KCl was used at a concentration different from that in Test Example 1.
A sample of the excised bladder was prepared in the same manner as in Test Example 1, and the tension of the preparation was measured. After the tension of the tissue was adjusted to be a steady state at 1 g, 15 mM KCl was applied. After the rhythmical contraction was confirmed to appear by KCl, the tissue was washed. Then, 15 mM KCl was applied again. After the rhythmical contraction took place constantly and the tissue reached the steady state, a test compound was applied by the cumulative method (half-logarithmic incremence). The contact time at each concentration was 30 minutes. The activity of the compound was expressed as the maximum relaxation rate (%) of the tension induced by the agonist.

The test system of data set [3] is bladder. As to the kind of experiment: Test Example 3: vesical contraction interval in anesthetized rats, intravenous. It is filed as in vivo, rat (female SD strain). The conditions noted are these: 1 mg/kg i.v., average over 20 minutes, relative to pre-administration value. The text has this: Female SD strain rats (120-180 g) were used as test animals. Each animal was anesthetized by subcutaneous administration of 1 g/kg urethane. A catheter was inserted into the trachea to secure respiration. A polyethylene cannula (PE50) was inserted into the bladder from the entrance of the urethra and the urethra was ligated at the base. A catheter for blood pressure measurement was inserted into the right carotid artery, and a cannula for drug administration was inserted into the right jugular vein. The arterial catheter and the vesical catheter were connected to pressure transducers to measure the blood pressure and the intravesical pressure. After the bladder was stabilized over about 15 minutes, physiological saline was injected into the bladder at a volume of 0.2-0.7 ml to induce the rhythmical contraction almost once a minute. […]
By this examination method, the effect of the test compounds on both blood pressure and vesical contraction can be evaluated. The blood pressure was measured 5, 15, and 30 minutes after the test compound was injected into the vein. […] The change of average contraction interval (time between contractions) over 20 minutes was expressed as the relative value based on the pre-administration value which was regarded as 100.

Data set [4] is described as follows: Test Example 3: arterial blood pressure in anesthetized rats, intravenous. It is filed as in vivo, rat (female SD strain). The following applies: 1 mg/kg i.v. From the text: Female SD strain rats (120-180 g) were used as test animals. Each animal was anesthetized by subcutaneous administration of 1 g/kg urethane. A catheter was inserted into the trachea to secure respiration. A polyethylene cannula (PE50) was inserted into the bladder from the entrance of the urethra and the urethra was ligated at the base. A catheter for blood pressure measurement was inserted into the right carotid artery, and a cannula for drug administration was inserted into the right jugular vein. The arterial catheter and the vesical catheter were connected to pressure transducers to measure the blood pressure and the intravesical pressure. After the bladder was stabilized over about 15 minutes, physiological saline was injected into the bladder at a volume of 0.2-0.7 ml to induce the rhythmical contraction almost once a minute. After the contraction of the bladder started, the contraction pattern was stabilized for 30-45 minutes, followed by intravenous administration of a test compound.
By this examination method, the effect of the test compounds on both blood pressure and vesical contraction can be evaluated. The blood pressure was measured 5, 15, and 30 minutes after the test compound was injected into the vein. Micturition contraction was induced by injecting physiological saline into the bladder. The change of average contraction interval (time between contractions) over 20 minutes was expressed as the relative value based on the pre-administration value which was regarded as 100.

In data set [5] the test system is bladder. The data set is described as follows: Test Example 4: micturition contraction interval in rats under partial restraint, oral. It is filed as in vivo, rat (male SD strain). The conditions noted are these: Rattus norvegicus, pre-administration = 100; for response vs control in vivo at 3 mg/kg: 3 mg/kg oral; for response vs control in vivo at 1 mg/kg: 1.0 mg/kg oral, second part of Table 4; for response vs control in vivo at 0.1 mg/kg: 0.1 mg/kg oral. The text has this: As a control compound, cromakalim was used.

Molecules are shown by their SMILES.

What is called IC50 is the midpoint of a concentration-inhibition curve. High values mean lower potency, low ones higher potency. `CC(O)(C(=O)Nc1cccc2c1C(=O)c1ccccc1CO2)C(F)(F)F` (stereo not shown) [Compound 1, 1-(3,3,3-Trifluoro-2-hydroxy-2-methylpropanoylamino)-6,11-dihydrodibenz[b,e]oxepin-11-one]: the half-inhibitory concentration (IC50) in data set [1] was determined as 1.7 µM; in data set [2] it was 2400 nM. For the same molecule, the “Change of contraction interval” value in data set [3] is recorded as “+150%”. Further, the “Change of average arterial blood pressure” value in data set [4] (5 min), in data set [4] (15 min) and in data set [4] (30 min) was “+5%” each time. The response vs control in vivo at 3 mg/kg in data set [5] (1 hr) turned out to be 136%; in data set [5] (2 hr) it was 148%; in data set [5] (3 hr), 134%; in data set [5] (4 hr), 122%; in data set [5] (5 hr), 117%.
Consider `CC(O)(C(=O)Nc1ccc2c(c1)OCc1occc1C2=O)C(F)(F)F` (stereo not shown) [Compound 10, 7-(3,3,3-Trifluoro-2-hydroxy-2-methylpropanoylamino)-4,10-dihydrofuro[2,3-c][1]benzoxepin-4-one], for which the IC50 in data set [1] was found to be 10 µM; in data set [2], 1900 nM. The response vs control in vivo at 1 mg/kg in data set [5] (1 hr after administration) was found to be 132 ± 11.2%; in data set [5] (2 hr after administration), 142 ± 17.5%; in data set [5] (3 hr after administration), 158 ± 22.3%; in data set [5] (4 hr after administration) it was 174 ± 29.9%; in data set [5] (5 hr after administration) it was 183 ± 42.7%.
For the molecule `CC(O)(C(=O)Nc1cccc2c1C(=O)c1occc1CO2)C(F)(F)F` (stereo not shown) [Compound 15, 9-(3,3,3-Trifluoro-2-hydroxy-2-methylpropanoylamino)-4,10-dihydrofuro[3,2-c][1]benzoxepin-10-one], the IC50 is 7.1 µM in data set [1] and 9400 nM in data set [2]. Also, the response vs control in vivo at 1 mg/kg in data set [5] (1 hr after administration) is 130 ± 9.5%; in data set [5] (2 hr after administration), 128 ± 5.3%; in data set [5] (3 hr after administration) it was 107 ± 16.5%; in data set [5] (4 hr after administration), 121 ± 11.4%; in data set [5] (5 hr after administration), 135 ± 12.6%.
Turning to `CC(O)(C(=O)Nc1ccc2c(c1)C(=O)c1sccc1CO2)C(F)(F)F` (stereo not shown) [Compound 16, 8-(3,3,3-Trifluoro-2-hydroxy-2-methylpropanoylamino)-4,10-dihydrothieno[3,2-c][1]benzoxepin-10-one], the IC50 in data set [1] is above 10 µM; in data set [2], 1400 nM. In addition, the response vs control in vivo at 1 mg/kg in data set [5] (1 hr after administration) is 118 ± 7.9%; in data set [5] (2 hr after administration) it was 132 ± 14.2%; in data set [5] (3 hr after administration), 119 ± 9.8%; in data set [5] (4 hr after administration), 127 ± 7.1%; in data set [5] (5 hr after administration), 137 ± 12.6%.
Take `CC(O)(C(=O)Nc1cccc2c1C(=O)c1cccc(F)c1CO2)C(F)(F)F` (stereo not shown) [Compound 20, 7-Fluoro-1-(3,3,3-trifluoro-2-hydroxy-2-methylpropanoylamino)-6,11-dihydrodibenz[b,e]oxepin-11-one]: the IC50 in data set [1] was determined as 2.3 µM; in data set [2], 6000 nM. Moreover, the response vs control in vivo at 1 mg/kg in data set [5] (1 hr after administration) stood at 121 ± 3.9%; in data set [5] (2 hr after administration) it was 147 ± 9.9%; in data set [5] (3 hr after administration), 148 ± 20%; in data set [5] (4 hr after administration), 156 ± 19.6%; in data set [5] (5 hr after administration), 142 ± 15.8%.
On to `C[C@](O)(C(=O)Nc1cccc2c1C(=O)c1sccc1CO2)C(F)(F)F` [Compound 33, (S)-9-(3,3,3-trifluoro-2-hydroxy-2-methylpropanoylamino)-4,10-dihydrothieno[3,2-c][1]benzoxepin-10-one], for which the IC50 in data set [1] was 1.1 µM; in data set [2], 2700 nM. In addition, the response vs control in vivo at 0.1 mg/kg is 135 ± 21.7% in data set [5] (1 hr after administration); 146 ± 25.5% in data set [5] (2 hr after administration); 143 ± 24.4% in data set [5] (3 hr after administration); 156 ± 30.6% in data set [5] (4 hr after administration); 161 ± 37.4% in data set [5] (5 hr after administration).
With `C[C@](O)(C(=O)Nc1cccc2c1C(=O)c1ccoc1CO2)C(F)(F)F` [Compound 35, (S)-5-(3,3,3-Trifluoro-2-hydroxy-2-methylpropanoylamino)-4,10-dihydrofuro[2,3-c][1]benzoxepin-4-one], the values for the IC50 in data set [1] and in data set [2] were 31 µM and 1000 nM, respectively. Moreover, the response vs control in vivo at 1 mg/kg in data set [5] (1 hr after administration) is 123 ± 8.8%; in data set [5] (2 hr after administration), 124 ± 5.7%; in data set [5] (3 hr after administration), 131 ± 9.8%; in data set [5] (4 hr after administration), 138 ± 11%; in data set [5] (5 hr after administration), 144 ± 8.9%.
Regarding `C[C@](O)(C(=O)Nc1ccc2c(c1)OCc1occc1C2=O)C(F)(F)F` [Compound 37, (S)-7-(3,3,3-Trifluoro-2-hydroxy-2-methylpropanoylamino)-4,10-dihydrofuro[2,3-c][1]benzoxepin-4-one], the IC50 in data set [1] stood at 4.3 µM; in data set [2], 200 nM. Further, the response vs control in vivo at 1 mg/kg in data set [5] (1 hr after administration) is 114 ± 10.7%; in data set [5] (2 hr after administration), 128 ± 6.5%; in data set [5] (3 hr after administration), 126 ± 6.5%; in data set [5] (4 hr after administration), 140 ± 10.2%; in data set [5] (5 hr after administration), 144 ± 11.1%.
As to `CC(O)(C(=O)Nc1ccc2c(c1)C(=O)c1ccccc1CC2)C(F)(F)F` (stereo not shown) [Compound 53, 3-(3,3,3-Trifluoro-2-hydroxy-2-methylpropanoylamino)-10,11-dihydro-5H-dibenzo[a,d]cyclohepten-5-one], the half-inhibitory concentration (IC50) is above 10 µM in data set [1] and 2900 nM in data set [2]. Further, the response vs control in vivo at 1 mg/kg in data set [5] (1 hr after administration) was determined as 108 ± 9.7%; in data set [5] (2 hr after administration), 134 ± 12%; in data set [5] (3 hr after administration), 148 ± 14%; in data set [5] (4 hr after administration) it was 155 ± 11.9%; in data set [5] (5 hr after administration), 168 ± 11.8%.
